Assay results published in patent US5599825A, “Water-soluble methine compound and pharmaceutical composition for treatment of cancer comprising the same” (Fuji Photo Film Co., Ltd., priority 1994, dated 1997).

Tests used:
[1] = Solubility test 1: 5 mg in 5 ml ion-exchanged water, macroscopic (1 mg/ml); type: physicochemical; conditions: room temperature; for Solubility 1 mg/mL: 5 minutes shaking; for dissolution in the above-described solubility tests: summary in words
Procedure: (§1) The solubility tests were conducted by the following methods of tests 1 and 2:
5 mg of a methine compound is fed into a test tube, to which 5 ml of ion-exchanged water is added, the resultant mixture is shaken at room temperature for 5 minutes, and the solubility thereof is macroscopically confirmed (1 mg/ml solution).

[2] = Solubility test 2: 5 mg in 0.5 ml ion-exchanged water, macroscopic (10 mg/ml); type: physicochemical; conditions: room temperature, 5 minutes shaking
Procedure: as §1
5 mg of a methine compound is fed into a test tube, to which 0.5 ml of ion-exchanged water is added, the resultant mixture is shaken at room temperature for 5 minutes, and the solubility thereof is macroscopically confirmed (10 mg/ml solution).

[3] = Solubility in 5% glucose solution for injection, macroscopic (10 mg/ml); type: physicochemical; conditions: room temperature, 5 minutes shaking
Procedure: The solubility of each of the compounds of the present invention synthesized in Example 1 in 5% glucose solution for injection was examined.
5 mg of a methine compound was fed into a test tube, to which 0.5 ml of 5% glucose solution for injection was added, the resultant mixture was shaken at room temperature for 5 minutes, and the solubility thereof was macroscopically confirmed (10 mg/ml solution).

[4] = test system: human colonic epithelial carcinoma LS174T; assay: Activity against human colonic epithelial carcinoma LS174T in nude mouse (tumor inhibition); type: in vivo, human (transplanted in BALB/C nu/nu mice); conditions: i.v.
Procedure: Activity of the present pharmaceutical compositions against human colonic epithelial carcinoma LS174T was determined by use of nude mouse as follows:
As the human colonic epithelial carcinoma cell lines LS174T, there was used the established line by trypsinizing piece of LS174T obtained from the operating theatre of the original adenocarcinoma of colon in such that the piece becomes suitable for cultivation. When this cultured cells LS174T are hypodermically injected to a nude mouse, the cells can be easily grown in the body of the nude mouse as a moderately to sufficiently differentiated human colonic epithelial carcinoma. The cells LS174T produce CEA in high level and can proliferate in hamster cheek pouches or immunodeprived mice, so that it has been proven that the cells LS174T have neoplastic properties.
BALB/C nu/nu mice (male, five weeks age) available from Charles River Japan Inc. were placed in an atmosphere having no pathogen. Tumors formed by the hypodermic injection of human colonic epithelial carcinoma cell lines LS174T into the mice were cut off under the aseptic condition, and the surrounding skin and connective tissue of the tumor tissues as well as the necrotic tissue located in the center of the tumor tissues were removed. The tumor tissues were Cut in the form of 3-5 mm square, and the resulting one tissue was charged into a needle for transplantation to hypodermically transplant it into the mouse. The resulting mice were randomly divided into control group (six mice) and treating group (six mice). The intravenous administration of the pharmaceutical composition into the treating group started next day. The amount and schedule of the administration were determined based on the experience, mainly the knowledge from the pretoxic-test data of LD 50 and LD 10.5% glucose solution or physiologic saline for injection was injected to the control group in the same amount as that to be intravenously injected to the treating group.
The pharmaceutical composition was dissolved in 5% glucose solution or physiologic saline for injection in such that the amount of the pharmaceutical composition contained in the glucose solution or physiologic saline is 5 ml per one kg of weight of the mouse to be injected so as to prepare an injection liquid. When the proliferation of tumor in the control group reached exponential growth phase and the size of the tumor became detectable by touch with hand, i.e., generally three weeks after the transplantation, the experiment was stopped. Then the tumor of each mouse was cut off and the weight of the resulting tumor was measured by use of chemical balance. Regarding each group, tumor inhibition percentage between the treating group and control group was calculated.

[5] = test system: LOX, a human melanoma cell line; assay: Nude mice bearing human melanoma LOX (survival); type: in vivo, human (in male athymic Swiss nu/nu mouse); conditions: i.p.
Procedure: Nude Mice Bearing Human Melanoma as a Model System
LOX, a human melanoma cell line, grown subcutaneously in nude mice was excised, trypsinized to yield a single cell suspension using a metal grid with a […]. Red blood cells were lysed by incubation with 0.17 molar ammonium chloride at 4° C. for 20 minutes. Five million viable trypan blue negative cells made up in 0.1 ml of Dulbecco modified Eagles' medium (DME) were injected into the peritoneal cavity of a male athymic Swiss nu/nu mouse. The control group and each treatment group consisted of 5 to 10 mice. Treatment was commenced the following day by intraperitoneal injection.
Ten control mice received 0.25 ml of 2% dextrose on those days the treated groups were injected with the compounds of this invention. The compounds of the General Formulas (I) to (II) used in this invention which were tested are listed in Table 6 below and the results obtained are shown in Table 6 of the accompanying drawings. T/C is the ratio, expressed as a percentage of the mean survival age of the treated group to the mean survival age of the untreated control group.

Row | Compound | Solubility 1 mg/mL [1] | Solubility 10 mg/mL [2] | Solubility 10 mg/mL [3] | further results
1 | CCn1c(=Cc2sc3ccccc3[n+]2CCOCCOCCOC)sc(=C2Sc3ccc4ccccc4c3N2C)c1=O [Compound 1-3] | soluble | soluble | soluble | Tumor Inhibition Ratio ([4]; 5 mg/kg day 1, 10 mg/kg days 3, 7, 13 mg/kg days 9, 13, 15, 17): 51.1%; T/C (mean survival age of treated group to untreated control group) ([5]; 7.5 mg/kg days 1, 2, 5, 7, 9, 13, 15, 20): 153%
2 | CCn1c(=Cc2sc3ccccc3[n+]2CCOCCOCCOCCOC)sc(=C2Sc3ccc4ccccc4c3N2C)c1=O [Compound 1-4] | soluble | soluble | soluble | Tumor Inhibition Ratio ([4]; 5 mg/kg days 1, 3, 7.5 mg/kg day 6, 10 mg/kg days 8, 10, 12.5 mg/kg days 13, 15, 17): 71.5%
3 | CCn1c(=Cc2sc3c4ccccc4ccc3[n+]2CCOCCOCCOC)sc(=C2Sc3ccc4ccccc4c3N2C)c1=O [Compound 1-5] | soluble | suspension |  | 
4 | CCn1c(=Cc2sc3ccccc3[n+]2CC)sc(=C2Sc3c(ccc4ccccc34)N2CCOCCOCCOC)c1=O [Compound 1-6, 3-ethyl-2-{[3-ethyl-5-(3-methoxyethoxyethoxyethylnaphtho[2,1-d]thiazolin-2-ylidene)]-4-oxothiazolidin-2-ylidenemethyl}benzothiazolium=chloride] | soluble | soluble |  | 
5 | CC[n+]1c(C=c2sc(=C3Sc4c(ccc5ccccc45)N3C)c(=O)n2CCOCCOCCOC)sc2ccccc21 [Compound 1-7, 3-ethyl-2-{[3-methoxyethoxyethoxyethyl-5-(3-methylnaphtho[2,1-d]thiazolin-2-ylidene)]-4-oxothiazolidin-2-ylidenemethyl}benzothiazolium=chloride] | soluble | soluble | soluble | Tumor Inhibition Ratio ([4]; 5 mg/kg days 1, 17, 7.5 mg/kg day 3, 10 mg/kg days 6, 8, 10, 13): 83.0%; T/C (mean survival age of treated group to untreated control group) ([5]; 5 mg/kg days 1, 9, 15, 10 mg/kg days 2, 5, 7, 13): 129%
6 | CCn1c(=Cc2sc3ccccc3[n+]2CCOCCOCCOC)sc(=C2Sc3c(ccc4ccccc34)N2C)c1=O [Compound 1-8] | soluble | suspension | soluble | 
7 | CCn1c(=Cc2sc3ccccc3[n+]2CCC2OCCCO2)sc(=C2Sc3ccc4ccccc4c3N2C)c1=O [Compound 1-9, 3-(1,3-dioxane-2-ethyl)-2-{[3-ethyl-5-(3-methylnaphtho[1,2-d]thiazolin-2-ylidene)]-4-oxothiazolidin-2-ylidenemethyl}benzothiazolium=chloride] | soluble | suspension |  | Tumor Inhibition Ratio ([4]; 3 mg/kg days 1, 4, 7, 1 mg/kg days 9, 11, 13, 18): 65.6%; T/C (mean survival age of treated group to untreated control group) ([5]; 5 mg/kg days 1, 13, 15, 10 mg/kg days 2, 5, 7, 15 mg/kg day 9): 153%
8 | CCn1c(=Cc2sc3ccccc3[n+]2CCOCCOCCOC)sc(=C2Oc3ccc4ccccc4c3N2C)c1=O [Compound 1-10] | soluble | soluble | soluble | 
9 | CCn1c(=Cc2sc3c4ccccc4ccc3[n+]2CCOCCOCCOC)sc(=C2Sc3ccccc3N2C)c1=O [Compound 1-11, 3-methoxyethoxyethoxyethyl-2-{[3-ethyl-5-(3-methylbenzothiazolin-2-ylidene)]-4-oxothiazolidin-2-ylidenemethyl}naphtho[2,1-d]thiazolium=chloride] | soluble | soluble | soluble | Tumor Inhibition Ratio ([4]; 8 mg/kg day 1, 10 mg/kg days 3, 6, 8, 10, 15, 17): 67.9%; T/C (mean survival age of treated group to untreated control group) ([5]; 5 mg/kg days 1, 15, 10 mg/kg days 2, 5, 7, 13, 15 mg/kg day 9): 129%
10 | CCn1c(=Cc2sc3ccccc3[n+]2CCOCCOCCOC)sc(=C2Sc3ccccc3N2C)c1=O [Compound 1-12] | soluble | soluble | soluble | T/C (mean survival age of treated group to untreated control group) ([5]; 5 mg/kg day 1, 10 mg/kg days 2, 5, 7, 9, 13, 15): 124%
11 | CCn1c(=Cc2sc3c4ccccc4ccc3[n+]2CCOCCOCCOC)sc(=C2SCCN2C)c1=O [Compound 1-14] | soluble | soluble | soluble | 
12 | CCN1C(=O)C(=C2Sc3ccc4ccccc4c3N2C)SC1=Nc1scc[n+]1CCOCCOCCOC [Compound 1-15] | soluble | soluble | soluble | Tumor Inhibition Ratio ([4]; 10 mg/kg days 1, 3, 6, 8, 10, 13, 15, 20): 60.0%
13 | CCn1c(=Cc2sc3c4ccccc4ccc3[n+]2CCOCCOCCOC)sc(=CC=C2Sc3ccc4ccccc4c3N2C)c1=O [Compound 1-16] | soluble | suspension | soluble | 
14 | CCn1c(=Cc2sc3ccccc3[n+]2CC)sc(=C2Sc3ccc4ccccc4c3N2C)c1=O [Compound S-1, reference compound] | suspension | suspension | suspension | dissolution in the above-described solubility tests [1]: not dissolved
15 | CCn1c(=Cc2sc3ccccc3[n+]2CCOC)sc(=C2Sc3ccc4ccccc4c3N2C)c1=O [Compound S-2, reference compound] | suspension | suspension | suspension | dissolution in the above-described solubility tests [1]: not dissolved
16 | CCn1c(=Cc2sc3ccccc3[n+]2CCOCCO)sc(=C2Sc3ccc4ccccc4c3N2C)c1=O [Compound S-3, reference compound] | suspension | suspension | suspension | dissolution in the above-described solubility tests [1]: not dissolved
